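1) Cells in 96-well plates. 2) Compound, 48 h, 5 concentrations. 3) Linear interpolation between surrounding doses. 4) Unreached endpoint = highest concentration. TGI marks complete inhibition of growth.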
What was measured:
Experiment in all cases: inhibition of tumour cell growth, NCI panel, 48 h
OVCAR-4 ovarian = system: OVCAR-4 ovarian
TK-10 renal = system: TK-10 renal
MDA-N = system: MDA-N
EKVX NSCLC = system: EKVX NSCLC
HOP-92 NSCLC = system: HOP-92 NSCLC
HCC-2998 colon = system: HCC-2998 colon
A549 NSCLC = system: A549 NSCLC
OVCAR-5 ovarian = system: OVCAR-5 ovarian
HT29 colon = system: HT29 colon
LOX IMVI melanoma = system: LOX IMVI melanoma

Compound	TGI (OVCAR-4 ovarian) [µM]	TGI (TK-10 renal) [µM]	TGI (MDA-N) [µM]	TGI (EKVX NSCLC) [µM]	TGI (HOP-92 NSCLC) [µM]	TGI (HCC-2998 colon) [µM]	TGI (A549 NSCLC) [µM]	TGI (OVCAR-5 ovarian) [µM]	TGI (HT29 colon) [µM]	TGI (LOX IMVI melanoma) [µM]
O=c1sc2c(s1)SSSSS2	> 50	> 50	> 50	> 50	> 50	> 50	> 50	> 50	> 50	> 50
O=C(CN1CCN(Cc2ccccc2)CC1)c1ccc2[nH]c(=O)oc2c1	> 100	> 100	> 100	> 100	> 100	> 100	> 100	> 100	> 100	> 100
Nc1cc2c3c(c1)Oc1cc(N)cc4c1C3c1c(cc(N)cc1O4)O2	> 100	> 100	59.5	> 47.7	> 100	> 100	> 100	> 100	> 63.1	41.6
O=P1(O)C=CC2(CCCC2)O1	> 100	> 100	> 100	> 100	> 100	> 100	> 100	> 100	> 100	> 100
NCC(=O)NC1(c2cc3ccccc3s2)CCCCC1	> 100	> 100	> 100	> 100	78.1	29	> 100	> 100	54.8	> 100
CC(=O)Nc1ccc(Nc2cc(=O)[nH]c(=O)[nH]2)cc1	> 100	> 100	> 100	> 100	> 100	> 100	> 100	> 100	> 100	> 100
N#Cc1c(N2CCCC2)nsc1NCc1ccccc1	> 100	> 100	> 100	> 100	> 100	> 100	> 100	> 100	> 100	> 100
COC(=O)c1c2c(cc3c1CC1(Cc4cc5c(c(C=O)c4C1)CCCC5)C3)CCCC2 (stereo not given)	> 100	> 100	> 100	> 100	> 100	> 100	> 100	> 100	> 100	> 100
C=CCN1CCC(OC(=O)C(O)(C#CC)C2CCCC2)CC1 (stereo not given)	> 100	> 100	> 100	> 100	> 100	> 100	> 100	> 100	> 100	> 100
